Results as given in patent US11478474B2, “2-(3′-(hydroxymethyl)-1-methyl-5-((5-(2-methyl-4-(oxetan-3-yl)piperazin-1-yl)pyridin-2-yl)amino)-6-oxo-1,6-dihydro-[3,4′-bipyridin]-2′-yl)-7,7-dimethyl-7,8-dihydro-2H-cyclopenta[4,5]pyrrolo[1,2-a]pyrazin-1(6H)-one as a BTK inhibitor” (HUTCHISON MEDIPHARMA LIMITED, priority 2020, dated 2022).

System: collagen induced arthritis in rats
Test: Rat arthritis model induced by type II collagen (CIA), paw volume
Assay type: in vivo
Conditions: CIA Lewis rats
Description: Example 9 Therapeutic Effect of the Compound of the Present Invention on a Rat Arthritis Model Induced by Type II Collagen
An appropriate amount of bovine type II collagen (CII, Chondrex (Redmond, Wash., USA), Cat #20021) was weighed and dissolved in 0.1 mole of acetic acid (SPGC Sinopharm Chemical Reagent Co., Ltd (Shanghai, P. R. China), Cat #: 10000218.), which was formulated into a solution with a concentration of 6 mg/mL, stirred at 4° C. overnight, and added with an equal volume of Freund's incomplete adjuvant (Sigma-Aldrich. (St. Louis, Mo., USA), Cat #: SLBW0366.), fully emulsified to prepare an emulsion with a CII concentration of 3 mg/mL.
Female Lewis rats were purchased from Beijing Vital River Laboratory Animal Technology Co., Ltd (certificate number 1100111911070522, initial body weight of 110-130 grams), and 3 rats were randomly selected as normal group, and the remaining rats were grouped according to the following table. In the first immunization on day 0, the rats except that in the normal group were anesthetized with isoflurane (Hebei Yipin Pharmaceutical Co., Ltd., Lot: C002170601.), and then disinfected with 75% alcohol. 0.2 mL of emulsion was injected intradermally at the base of the tail thereof. A second challenge was carried out on day 7, and 0.2 mL of emulsion was intradermally injected using the same method.
The paw volume was measured on day 8 after immunization, and the left and right hind paw volumes (V) were measured every day after the paw volume increase was detected.
The average arthrosis paw volume of each animal before administration was used as the baseline (or considered 100% inhibition of inflammation). The averaged paw swelling (APS) of each animal is calculated according to the following formula, wherein, APVd1 is the average paw volume of the animal administered on day 1, and APVdt is the average paw volume of the animal administered on day t: The averaged paw swelling APSdt=(APVdt−APVd1)
ED50 is calculated by XLfit software according to the AUC inhibition ratio of the area under the curve of the average paw volume change. The selected model is “log (inhibitor) vs. response−Variable slope”: […]

[1] = oral QD, from AUC inhibition ratio of average paw volume change

| Structure (SMILES) | inhibition ratio of area under the curve (paw swelling) (0.06 mg/kg QD oral) [%] | inhibition ratio of area under the curve (paw swelling) (0.25 mg/kg QD oral) [%] | inhibition ratio of area under the curve (paw swelling) (1 mg/kg QD oral) [%] | inhibition ratio of area under the curve (paw swelling) (4 mg/kg QD oral) [%] | inhibition ratio of area under the curve (paw swelling) (16 mg/kg QD oral) [%] | ED50 [1] [mg/kg/day] | ED90 [1] [mg/kg] | minimum effective dose (oral QD, paw swelling) [mg/kg/day] | paw volume compared with the vehicle control group (4 mg/kg QD oral, p<0.01) |
| --- | --- | --- | --- | --- | --- | --- | --- | --- | --- |
| C[C@H]1CN(C2COC2)CCN1c1ccc(Nc2cc(-c3ccnc(-n4ccn5c6c(cc5c4=O)CC(C)(C)C6)c3CO)cn(C)c2=O)nc1 [Compound 19] | 58.8 | 91.3 | 95.9 | 93.2 | 97.5 | < 0.06 | 0.26 | 0.06 | – |
| C[C@H]1CN(C2COC2)CCN1c1ccc(Nc2cc(-c3ccnc(N4CCn5c(cc6c5CC(C)(C)C6)C4=O)c3CO)cn(C)c2=O)nc1 [GDC-0853, fenebrutinib, reference compound] | – | – | – | 87.1 | – | – | – | – | significantly reduced |
